US7795236B2, “Purine nucleoside derivative modified in 8-position and medical use thereof” (Kissei Pharmaceutical Co., Ltd., priority 2005, dated 2010)

Tested on: not listed separately
Test: Effects of CNT inhibitor on plasma uric acid level (purine load test in rats)
Format: in vivo
Details: Male SD-IGS rats, oxonic acid 100 mg/kg s.c., purine mix 50 mg/kg and test compound 50 mg/kg orally, blood after 1 hour; control group = 100%
Experimental: Male SD-IGS rats (5 weeks old) which were fasted overnight, were subcutaneously treated with oxonic acid (Aldrich; 100 mg/kg), and after 1 hour, purine mix (Adenosine: Inosine: Guanosine=1:1:1 (Adenosine (Sigma), Inosine (WAKO), Guanosine (ICN); 50 mg/kg) and test compounds (50 mg/kg) were orally administrated simultaneously. A control group was treated with oxonic acid and the purine mix, and a group administrated only oxonic acid represented endogenous plasma uric acid value. After 1 hour, blood was collected from the abdominal aorta under ether anesthesia, and the plasma was collected with Venoject II vacuum blood collecting tube (Terumo, VP-FH052). According to the method described in Journal of Chromatography B, Vol. 744 (2000), pp. 129-138, plasma uric acid level was measured by using HPLC method mentioned below. The difference between plasmauric acid value in each study group and endogenous plasma uric acid value was calculated on the basis of 100% in the control group.
Theophylline (10 μg) as an internal standard substance was added to 0.1 mL of plasma collected with the above method, and then the samples were deproteinized with 1 mL of methanol. After the samples were centrifuged, the methanol layers were evaporated to dryness under a stream of nitrogen. […] Plasma uric acid concentration was determined by HPLC method according to the condition described below. […]

| Compound | Percentage of increment of plasma uric acid level (%) |
| --- | --- |
| Nc1ncnc2c1nc(NCc1ccc(-c3ccccc3)c(OCCCCO)c1)n2[C@@H]1O[C@H](CO)[C@@H](O)[C@H]1O [Example 82] | 44.1 (p < 0.05) % |

Molecular target: T1, human CNT2 (Homo sapiens, UniProt O43868, I160M/P22L/S45C)
T1 construct: expressed in transfected cells; host or cells: COS-7 cells (RIKEN CELL BANK RCB0539), transient lipofection of a pCI-neo plasmid
T1 sequence (O43868 1-658 P22L/S45C/I160M): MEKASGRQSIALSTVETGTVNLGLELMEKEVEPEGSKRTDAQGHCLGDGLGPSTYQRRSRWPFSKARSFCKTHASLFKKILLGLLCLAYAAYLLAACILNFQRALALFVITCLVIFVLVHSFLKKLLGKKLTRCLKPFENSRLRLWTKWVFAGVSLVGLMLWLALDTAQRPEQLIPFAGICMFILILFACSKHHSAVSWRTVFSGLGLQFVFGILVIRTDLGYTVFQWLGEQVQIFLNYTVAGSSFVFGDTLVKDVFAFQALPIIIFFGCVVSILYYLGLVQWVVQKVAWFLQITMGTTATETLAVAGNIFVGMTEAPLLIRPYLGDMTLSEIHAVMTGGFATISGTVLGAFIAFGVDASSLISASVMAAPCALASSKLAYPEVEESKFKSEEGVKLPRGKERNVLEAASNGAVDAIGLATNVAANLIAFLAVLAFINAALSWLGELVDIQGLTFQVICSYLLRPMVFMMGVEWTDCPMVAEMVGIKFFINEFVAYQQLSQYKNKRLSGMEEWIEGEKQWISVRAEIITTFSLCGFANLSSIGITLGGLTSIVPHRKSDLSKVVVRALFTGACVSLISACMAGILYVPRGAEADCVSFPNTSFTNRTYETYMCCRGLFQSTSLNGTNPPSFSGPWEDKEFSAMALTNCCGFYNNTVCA
Test: Inhibitory activity against uptake of inosine through human CNT2
Format: cell-based
Details: 14C-labeled inosine 10 μM, COS-7 cells transiently expressing human CNT2, 30 minutes at 37° C.
Experimental: Expression plasmid of human CNT2 was transfected into COS-7 cells (RIKEN CELL BANK RCB0539) by lipofection method. LIPOFECTAMINE 2000 (Invitrogen) was used as a lipofection reagent. COS-7 cells were diluted in D-MEM (Invitrogen) containing 10% fetal calf serum (Sanko Junyaku) at 5×10^5/1 mL, and seeded into collagen-coated 96-well plates (IWAKI) at 100 μL/well and cultured at 37° C. for 2 hours with 5% CO2 condition. For each well, 0.6 μL of LIPOFECTAMINE 2000 (Invitrogen) was diluted in 25 μL of OPTI-MEM (Invitrogen), and incubated for 7 minutes at room temperature (hereinafter referred to as Lipo 2000-OPTI). For each well, 0.3 μg of plasmid was diluted in 25 μL of OPTI-MEM (Invitrogen), and the solution was added to the Lipo 2000-OPTI and mixed gently and incubated for 30 minutes at room temperature, and was transferred 50 μL for each well to culture medium. The cells were incubated at 37° C. with 5% CO2 condition for 2 days, and used for the uptake assays.
An Uptake buffer was prepared by addition of a mixture of non-radioisotope labeled (WAKO) and ^14C-labeled (Muromachi Yakuhin) inosine at the final concentration of 10 μM into a buffer, pH7.4, containing 140 mM sodium chloride, 2 mM potassium chloride, 1 mM calcium chloride, 1 mM magnesium chloride, 10 mM HEPES 2-[4-(2-hydroxyethyl)-1-piperazinyl]ethane sulfonic acid, 5 mM tris(hydroxymethyl)aminomethane and 5 mM glucose. For measurement of basal uptake, Basal uptake measurement buffer, which contained 140 mM choline chloride instead of sodium chloride was prepared. In uptake assays, NBMPR was added to Uptake buffer and Basal uptake measurement buffer at the final concentration of […]. In the case of measurement of inhibitory activity of test compounds, test compounds were dissolved in dimethyl sulfoxide, and then appropriately diluted with Uptake buffer as to prepare Measurement buffers. After removing culture medium of human CNT2 transiently expressing cells, Pretreatment buffer (Basal uptake measurement buffer without inosine and glucose) was added to wells at 200 μL/well and incubated at 37° C. for 10 minutes. After repeating the same step again, Pretreatment buffer was removed and Measurement buffers and Basal uptake measurement buffer were added at 75 μL/well and incubated at 37° C. After incubation for 30 minutes, Measurement buffers and Basal uptake measurement buffer were removed, and the cells were washed with Washing buffer (Basal uptake measurement buffer with non-radioisotope labeled inosine at 10 μM) at 200 μL/well twice. The cells were solubilized with 0.2 mol/L sodium hydroxide at 75 μL/well, and the cell lysates were transferred into PicoPlates (Perkin Elmer). After mixing with 150 μL of MicroScint-40 (Perkin Elmer), radioactivity was measured by means of scintillation counter (Perkin Elmer). One hundred % was set to the difference between the uptake in the control group and the basal uptake, and the uptake of inosine at each test compound concentration was calculated. The test compound concentration inhibiting 50% uptake of inosine (IC50 value) was calculated using logit plot.

| Compound | IC50 |
| --- | --- |
| C[N+](C)(C)CCCOc1cccc(-c2ccc(CNc3nc4c(N)ncnc4n3[C@@H]3O[C@H](CO)[C@@H](O)[C@H]3O)cc2)c1 [Example 167] | 0.412 µM |
| NCCCOc1ccc(-c2cccc(CNc3nc4c(N)ncnc4n3[C@@H]3O[C@H](CO)[C@@H](O)[C@H]3O)c2)cc1 [Example 149] | 0.176 µM |
| Nc1ncnc2c1nc(NCc1ccc(-c3ccsc3)cc1)n2[C@@H]1O[C@H](CO)[C@@H](O)[C@H]1O [Example 132] | 0.649 µM |
| Nc1ncnc2c1nc(NCc1ccc(-c3cccc(OCCCN4CCCCC4)c3)cc1)n2[C@@H]1O[C@H](CO)[C@@H](O)[C@H]1O [Example 125] | 0.528 µM |
| NC(=O)[C@H](Cc1ccc(O)cc1)NCCCOc1cccc(-c2ccc(CNc3nc4c(N)ncnc4n3[C@@H]3O[C@H](CO)[C@@H](O)[C@H]3O)cc2)c1 [Example 164] | 0.085 µM |
| N=C(N)NCCCOc1cccc(-c2ccc(CNc3nc4c(N)ncnc4n3[C@@H]3O[C@H](CO)[C@@H](O)[C@H]3O)cc2)c1 [Example 157, 8-[3′-(3-Guanidinopropoxy)biphenyl-4-ylmethylamino]-adenosine] | 0.234 µM |
| NCCCOc1cccc(-c2ccc(CNc3nc4c(N)ncnc4n3[C@@H]3O[C@H](CO)[C@@H](O)[C@@H]3O)cc2)c1 [Example 154] | 7.15 µM |

Continued, values first:

| IC50 | Compound |
| --- | --- |
| 0.378 µM | CCN(CC)CCCOc1cc(CNc2nc3c(N)ncnc3n2[C@@H]2O[C@H](CO)[C@@H](O)[C@H]2O)ccc1-c1ccccc1 [Example 115, 8-[2-(3-Diethylaminopropoxy)biphenyl-4-ylmethylamino]-adenosine] |
| 0.444 µM | Nc1ncnc2c1nc(NCc1ccc(-c3ccccc3)c(OCCCN3CCCC3)c1)n2[C@@H]1O[C@H](CO)[C@@H](O)[C@H]1O [Example 120] |
| 1.61 µM | NCCCOc1cc(CNc2nc3c(N)ncnc3n2[C@@H]2O[C@H](CO)[C@@H](O)[C@@H]2O)ccc1-c1ccccc1 [Example 153] |
| 0.223 µM | CCN(CCO)CCCOc1cc(CNc2nc3c(N)ncnc3n2[C@@H]2O[C@H](CO)[C@@H](O)[C@H]2O)ccc1-c1ccccc1 [Example 130] |
| 0.321 µM | CCCNCCCOc1cc(CNc2nc3c(N)ncnc3n2[C@@H]2O[C@H](CO)[C@@H](O)[C@H]2O)ccc1-c1ccccc1 [Example 147] |
| 0.266 µM | NCCCOc1cc(CNc2nc3c(N)ncnc3n2[C@H]2C[C@H](O)[C@@H](CO)O2)ccc1-c1ccccc1 [Example 155] |
| 0.378 µM | CN(C)CCCOc1cccc(-c2ccc(CNc3nc4c(N)ncnc4n3[C@@H]3O[C@H](CO)[C@@H](O)[C@H]3O)cc2)c1 [Example 117] |
| 2.43 µM | CN(C)CCCOc1cccc(-c2ccc(CCNc3nc4c(N)ncnc4n3[C@@H]3O[C@H](CO)[C@@H](O)[C@H]3O)cc2)c1 [Example 171] |

Molecular target: T2, human CNT2 (Homo sapiens, UniProt O43868)
T2 construct: expressed in transfected cells; host or cells: COS-7 cells (RIKEN CELL BANK RCB0539), transient lipofection of a pCI-neo plasmid
T2 sequence (O43868 1-658 P22L/S45C/I160M): T1 sequence (O43868 1-658 P22L/S45C/I160M)
Test: Inhibitory activity against uptake of adenosine through human CNT2
Format: cell-based
Details: 14C-labeled adenosine 10 μM, COS-7 cells transiently expressing human CNT2, 30 minutes at 37° C.
Experimental: Expression plasmid of human CNT2 was transfected into COS-7 cells (RIKEN CELL BANK RCB0539) by lipofection method. LIPOFECTAMINE 2000 (Invitrogen) was used as a lipofection reagent. COS-7 cells were diluted in D-MEM (Invitrogen) containing 10% fetal calf serum (Sanko Junyaku) at 5×10^5/1 mL, and seeded into collagen-coated 96-well plates (IWAKI) at 100 μL/well and cultured at 37° C. for 2 hours with 5% CO2 condition. For each well, 0.6 μL of LIPOFECTAMINE 2000 (Invitrogen) was diluted in 25 μL of OPTI-MEM (Invitrogen), and incubated for 7 minutes at room temperature (hereinafter referred to as Lipo 2000-OPTI). […]
An Uptake buffer was prepared by addition of a mixture of non-radioisotope labeled (Sigma) and ^14C-labeled (Amersham Biosciences) adenosine at the final concentration of 10 μM into a buffer, pH 7.4, containing 140 mM sodium chloride, 2 mM potassium chloride, 1 mM calcium chloride, 1 mM magnesium chloride, 10 mM HEPES 2-[4-(2-hydroxyethyl)-1-piperazinyl]ethane sulfonic acid, 5 mM tris(hydroxy-methyl)aminomethane and 5 mM glucose. […] After mixing with 150 μL of MicroScint-40 (Perkin Elmer), radioactivity was measured by means of scintillation counter (Perkin Elmer). One hundred % was set to the difference between the uptake in the control group and the basal uptake, and the uptake of adenosine at each test compound concentration was calculated. […]

| IC50 | Compound |
| --- | --- |
| 0.297 µM | Nc1ncnc2c1nc(NCc1ccc(-c3ccccc3)c(OCCCCO)c1)n2[C@@H]1O[C@H](CO)[C@@H](O)[C@H]1O [Example 82] |

Tested on: CNT
Test: not given
Details: Non-patent Reference 14; cited from earlier work

| Compound | inhibitory activity against CNT |
| --- | --- |
| Nc1ncnc2c1nc(Br)n2[C@@H]1O[C@H](CO)[C@@H](O)[C@H]1O [8-bromoadenosine] | weak inhibitory activity |

Molecular target: T3, ENT2 (Homo sapiens, UniProt Q14542)
T3 sequence (Q14542 1-456): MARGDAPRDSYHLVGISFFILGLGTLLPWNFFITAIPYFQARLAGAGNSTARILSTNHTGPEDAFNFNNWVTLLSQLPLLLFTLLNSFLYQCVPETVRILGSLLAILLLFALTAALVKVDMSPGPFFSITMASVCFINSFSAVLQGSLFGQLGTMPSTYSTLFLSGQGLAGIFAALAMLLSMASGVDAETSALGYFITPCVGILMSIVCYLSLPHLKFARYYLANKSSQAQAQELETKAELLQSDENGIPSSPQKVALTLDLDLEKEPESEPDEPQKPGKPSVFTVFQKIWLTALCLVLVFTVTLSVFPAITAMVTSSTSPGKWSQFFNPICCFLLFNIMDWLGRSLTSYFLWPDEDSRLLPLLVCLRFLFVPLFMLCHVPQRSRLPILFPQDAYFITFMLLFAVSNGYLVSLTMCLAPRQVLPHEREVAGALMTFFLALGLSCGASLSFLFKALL
Test: not given
Details: ENT2 inhibited only by high concentration of NBMPR; cited from earlier work

| Compound | IC50 |
| --- | --- |
| O=[N+]([O-])c1ccc(CSc2ncnc3c2ncn3C2OC(CO)C(O)C2O)cc1 (stereo not shown) [NBMPR, nitrobenzylthioinosine] | > 1 µM |
